In experiment [1] the target is fetal hemoglobin (HbF) (Homo sapiens, UniProt P69892+P69905). Kind of experiment: oxygen equilibrium curves / P50 value of fetal hemoglobin (HbF). It counts as biochemical. Conditions: for shift of the oxygen equilibrium curve of fetal hemoglobin (HbF): 0.6-4.0 mM compound with 0.6 or 2.5 mM 2,3-BPG (FIG. 9, 10); for oxygen affinity modulating effect (increase of P50 value) on fetal hemoglobin compared with 2,3-BPG: FIG. 8, varying concentrations; for oxygen release efficiency of fetal hemoglobin (HbF) relative to normal hemoglobin: with 2,3-BPG (FIG. 9, 10).

Experiment [2] has as its target hemoglobin (Homo sapiens, UniProt P68871+P69905). Kind of experiment: oxygen equilibrium curves / P50 value of hemoglobin. The conditions noted are these: for effect with 2,3-BPG in modulating hemoglobin allostery: FIG. 2. In kind it is biochemical.

SMILES strings stand for the structures. Entries after “also recorded” stand apart in the source; their conditions may differ.

Sequence of hemoglobin (P69905 2-142 limits assumed): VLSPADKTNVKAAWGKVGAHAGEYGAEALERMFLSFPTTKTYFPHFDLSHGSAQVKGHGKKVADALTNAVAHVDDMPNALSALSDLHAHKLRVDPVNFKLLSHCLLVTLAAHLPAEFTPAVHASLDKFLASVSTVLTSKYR
Sequence of hemoglobin (P68871 2-147 limits assumed): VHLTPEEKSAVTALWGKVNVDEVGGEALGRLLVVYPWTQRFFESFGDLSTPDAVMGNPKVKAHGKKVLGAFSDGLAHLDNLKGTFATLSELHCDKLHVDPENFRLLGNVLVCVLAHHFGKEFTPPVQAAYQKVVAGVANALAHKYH
Sequence of fetal hemoglobin (HbF) (P69905 2-142 limits assumed): as the sequence (P69905 2-142 limits assumed) above
Sequence of fetal hemoglobin (HbF) (P69892 2-147 limits assumed): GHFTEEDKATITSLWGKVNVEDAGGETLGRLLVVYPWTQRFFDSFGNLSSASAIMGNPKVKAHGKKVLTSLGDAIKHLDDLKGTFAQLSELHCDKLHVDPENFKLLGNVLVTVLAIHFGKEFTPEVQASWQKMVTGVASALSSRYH

As to `CCC/C=C1\OC(=O)c2ccccc21` [Z-butylidenephthalide], in experiment [1], the “shift of the oxygen equilibrium curve of fetal hemoglobin (HbF)” value was “effectively shift the oxygen equilibrium curve for the fetal hemoglobin (HbF) to the right; also recorded: effectively shift the oxygen equilibrium curve of the fetal hemoglobin (HbF) to the right”, the “oxygen affinity modulating effect (increase of P50 value) on fetal hemoglobin compared with 2,3-BPG” value is “stronger modulating effect than 2,3-BPG; also recorded: higher than that of 2,3-BPG” and the “oxygen release efficiency of fetal hemoglobin (HbF) relative to normal hemoglobin” value is on record as “achieve the same oxygen release efficiency as the normal hemoglobin”.

On to `O=C(O)C(COP(=O)(O)O)OP(=O)(O)O` (centres unmarked) [2,3-BPG, 2,3-bisphosphorglycerate], for which the “oxygen release efficiency of hemoglobin” value in experiment [2] (1.2 mM 2,3-BPG, PO2 20 mmHg) is 40%; in experiment [2] (12 mM 2,3-BPG, oxygen partial pressure 20 mmHg, 20% without 2,3-BPG), 65%; in experiment [2] (varying concentrations of 2,3-BPG, brain physiological PO2, from 10%), 30%. For the same molecule, the “oxygen saturation fraction of hemoglobin” value in experiment [2] (1.2 mM 2,3-BPG, PO2 20 mmHg (FIG. 7)) was “approximately 60%”; in experiment [2] (12 mM 2,3-BPG, fixed oxygen partial pressure of 20 mmHg, 80% where no 2,3-BPG is present), 35%; in experiment [2] (varying concentrations of 2,3-BPG, brain physiological PO2 (33.8±2.6 mmHg), from 90% (FIG. 4)), around 70%. In addition, the “P50 value of hemoglobin” value in experiment [2] (approximately 4 mM 2,3-BPG, no phthalide compound) was 18.8 mmHg. Moreover, the “oxygen release efficiency of normal cells” value in experiment [2] (varying concentrations of 2,3-BPG, PO2 of normal cells, from 20%) is around 65%. For the same molecule, the “modulating effect of 2,3-BPG on fetal hemoglobin (HbF) relative to normal hemoglobin” value in experiment [1] was “not as effective as that on the normal hemoglobin”.

Turning to `CCC/C=C1\OC(=O)C2=C1CCC=C2` [Z-ligustilide], the “effect with 2,3-BPG in modulating hemoglobin allostery” value in experiment [2] was “synergistic effect”. In addition, in experiment [1], the “shift of the oxygen equilibrium curve of fetal hemoglobin (HbF)” value is “effectively shift the oxygen equilibrium curve for the fetal hemoglobin (HbF) to the right”, the “oxygen affinity modulating effect (increase of P50 value) on fetal hemoglobin compared with 2,3-BPG” value is given as “stronger modulating effect than 2,3-BPG; also recorded: higher than that of 2,3-BPG” and the “oxygen release efficiency of fetal hemoglobin (HbF) relative to normal hemoglobin” value is reported as “achieve the same oxygen release efficiency as the normal hemoglobin”.

On to `CCC/C=C1\OC(=O)C2=C1CC[C@@H](O)[C@@H]2O` [senkyunolide I], for which the “effect with 2,3-BPG in modulating hemoglobin allostery” value in experiment [2] is recorded as “synergistic effect”.

These data come from patent publication US9713602B1, “Method for facilitating the oxygen release of hemoglobin-based blood substitutes” (National Sun Yat-sen University, priority 2016, dated 2017).
